Data published in ChEMBL document CHEMBL1131383, “Syntheses and biological evaluation of indolocarbazoles, analogues of rebeccamycin, modified at the imide heterocycle” (J Med Chem, 1998).
Values after ≈ are worked out from the molar mass of the structure shown.

What was measured:
[1] = Selectivity was measured [Selectivity = (CC50/IC50) against HIV-1 infected CEM-SS cells]; type: functional
Streptomyces chartreusis = experiment: In Vitro growth inhibitory effect of compounds against Gram-Positive Bacteria Streptomyces chartreusis NRRL11407; type: functional
Bacillus cereus [2] = experiment: In Vitro growth inhibitory effect of compounds against Gram-Positive Bacteria Bacillus cereus ATCC 14579; type: functional
B16 = experiment: Antiproliferative activity measured against murine B16 melanoma cells; type: functional, cell-based; details: Mus musculus
Bacillus cereus [3] = experiment: Antimicrobial activity is tested against Bacillus cereus; type: functional
P388CPT5 = experiment: Antiproliferative activity measured against P388CPT5 cells resistant to Topoisomerase I inhibitor Camptothecin; type: functional, cell-based; details: Mus musculus
[4] = molecular target: T1, DNA topoisomerase 1 (Homo sapiens) (UniProt P11387); experiment: Inhibition of human Topoisomerase I
T1 sequence (whole entry): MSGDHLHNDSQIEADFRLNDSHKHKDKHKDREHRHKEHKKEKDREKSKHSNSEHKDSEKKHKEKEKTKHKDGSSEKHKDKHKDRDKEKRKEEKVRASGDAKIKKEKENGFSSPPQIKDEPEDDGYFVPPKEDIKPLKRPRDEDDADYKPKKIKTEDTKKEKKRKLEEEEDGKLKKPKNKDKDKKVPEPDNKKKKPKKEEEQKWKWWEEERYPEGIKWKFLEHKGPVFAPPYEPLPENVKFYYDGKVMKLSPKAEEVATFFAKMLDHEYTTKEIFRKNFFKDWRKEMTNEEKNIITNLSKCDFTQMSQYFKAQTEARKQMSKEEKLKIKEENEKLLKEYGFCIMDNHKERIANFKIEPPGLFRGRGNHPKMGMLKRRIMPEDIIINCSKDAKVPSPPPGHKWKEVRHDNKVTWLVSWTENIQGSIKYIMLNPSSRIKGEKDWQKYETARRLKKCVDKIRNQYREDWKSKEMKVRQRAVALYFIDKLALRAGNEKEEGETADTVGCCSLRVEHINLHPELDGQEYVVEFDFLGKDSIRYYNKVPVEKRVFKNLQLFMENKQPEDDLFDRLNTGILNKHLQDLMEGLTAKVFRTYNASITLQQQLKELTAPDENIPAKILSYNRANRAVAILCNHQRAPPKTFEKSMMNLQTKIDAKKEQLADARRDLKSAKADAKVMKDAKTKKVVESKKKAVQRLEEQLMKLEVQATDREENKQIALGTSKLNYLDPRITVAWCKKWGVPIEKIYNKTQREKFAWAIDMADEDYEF

CEM-SS [5] = experiment: Inhibitory concentration is tested in HIV-1 Lai-infected CEM-SS cells; type: functional, cell-based; details: Homo sapiens
P388 = experiment: Antiproliferative activity measured against P388 Leukemia cells; type: functional, cell-based, Mus musculus
CEM-SS [6] = experiment: Cytotoxic concentration is tested against CEM-SS cells; type: functional; details: Homo sapiens
Protein kinase C (PKC) = experiment: Inhibition of Protein kinase C; type: protein assay

| SMILES | Selectivity index [1] | Inhibition zone (Streptomyces chartreusis) | Inhibition zone (Bacillus cereus [2]) | IC50 (B16) | MIC (Bacillus cereus [3]) | IC50 (P388CPT5) | MIC [4] | IC50 (CEM-SS [5]) | IC50 (P388; Mus musculus, P388) | CC50 (CEM-SS [6]) | IC50 (P388; p388) | IC50 (Protein kinase C (PKC)) |
| --- | --- | --- | --- | --- | --- | --- | --- | --- | --- | --- | --- | --- |
| CO[C@H]1[C@H](O)[C@@H](O)[C@H](n2c3ccccc3c3c4c(c5c6ccccc6[nH]c5c32)C(=O)N(C)C4)O[C@@H]1CO.CO[C@H]1[C@H](O)[C@@H](O)[C@H](n2c3ccccc3c3c4c(c5c6ccccc6[nH]c5c32)CN(C)C4=O)O[C@@H]1CO | 14 | 9 mm | 9 mm | 5 µM | 24 µM | > 19.9 µM | 19.9 µM | 0.6 µM | 3.39 µM | 8.38 µM | – | – |
| CO[C@H]1[C@H](O)[C@@H](O)[C@H](n2c3ccccc3c3c4c(c5c6ccccc6[nH]c5c32)C(=O)OC4=O)O[C@@H]1CO | – | 7 mm | – | 17.5 µM | > 99 µM | > 20 µM | 1.99 µM (≈ 1 µg/mL) | > 1.98 µM | 6.36 µM | > 1.98 µM | – | – |
| CO[C@H]1[C@H](O)[C@@H](O)[C@H](n2c3ccccc3c3c4c(c5c6ccccc6n(C)c5c32)C(=O)OC4=O)O[C@@H]1CO | – | 7 mm | – | 31 µM | > 97 µM | – | > 19 µM | > 9.7 µM | > 19 µM | > 9.7 µM | – | – |
| CO[C@H]1[C@H](O)[C@@H](O)[C@H](n2c3ccc(Br)cc3c3c4c(c5c6cc(Br)ccc6[nH]c5c32)C(=O)OC4=O)O[C@@H]1CO | 1.9 | – | – | 13 µM | > 75 µM | 7.58 µM | 1.52 µM (≈ 1 µg/mL) | 4.85 µM | 0.91 µM | 9.39 µM | – | – |
| CO[C@H]1[C@H](O)[C@@H](O)[C@H](n2c3ccccc3c3c4c(c5c6ccccc6n(C)c5c32)C(=O)N(C)C4=O)O[C@@H]1CO | – | 12 mm | 8 mm | 8 µM | 94 µM (≈ 49.8 µg/mL) | – | > 19 µM | > 19 µM | > 19 µM | > 19 µM | – | – |
| CO[C@H]1[C@H](O)[C@@H](O)[C@H](n2c3ccccc3c3c4c(c5c6ccccc6[nH]c5c32)C(=O)NC4=O)O[C@@H]1CO | 5.6 | – | 7 mm | 0.9 µM | > 100 µM | > 20 µM | 0.59 µM (≈ 0.296 µg/mL) | 0.16 µM | 0.69 µM | 0.9 µM | – | – |
| CO[C@H]1[C@H](O)[C@@H](O)[C@H](n2c3c(Cl)cccc3c3c4c(c5c6cccc(Cl)c6[nH]c5c32)C(=O)N(C)C4=O)O[C@@H]1CO (stereo in doubt; A) | 1.6 | – | – | – | > 85 µM | 0.6 µM | – | 5.06 µM | – | 8.06 µM | 0.61 µM | > 100 µM |
| CO[C@H]1[C@H](OC=O)[C@@H](O)[C@H](n2c3ccccc3c3c4c(c5c6ccccc6[nH]c5c32)C(=O)OC4=O)O[C@@H]1CO | – | 12 mm | 8 mm | – | > 94 µM | – | 5.7 µM (≈ 3.02 µg/mL) | > 9.4 µM | > 19 µM | > 9.4 µM | – | – |
| CO[C@H]1[C@H](O)[C@@H](O)[C@H](n2c3ccccc3c3c4c(c5c6ccccc6[nH]c5c32)C(=O)NC4)O[C@@H]1CO.CO[C@H]1[C@H](O)[C@@H](O)[C@H](n2c3ccccc3c3c4c(c5c6ccccc6[nH]c5c32)CNC4=O)O[C@@H]1CO | 3.5 | – | – | – | 25 µM | 3 µM | 0.02 µM | 4.1 µM | – | 14.3 µM | – | 3.7 µM |
| CO[C@H]1[C@H](O)[C@@H](O)[C@H](n2c3c(Cl)cccc3c3c4c(c5c6cccc(Cl)c6[nH]c5c32)C(=O)NC4=O)O[C@@H]1CO [REBECCAMYCIN] | 2 | 9 mm | 9 mm | – | 10.9 µM (≈ 6.22 µg/mL) | 10.5 µM | – | 0.52 µM | 1.22 µM | 1.05 µM | – | – |
| CO[C@H]1[C@H](O)[C@@H](O)[C@H](n2c3ccccc3c3c4c(c5c6ccccc6[nH]c5c32)C(=O)N(C)C4=O)O[C@@H]1CO | 1.9 | – | – | – | 1.55 µM (≈ 0.799 µg/mL) | 0.7 µM | – | 4.17 µM | 1.06 µM | 7.96 µM | – | > 100 µM |
| CO[C@H]1[C@H](O)[C@@H](O)[C@H](n2c3c(Cl)cccc3c3c4c(c5c6cccc(Cl)c6[nH]c5c32)C(=O)NC4)O[C@@H]1CO.CO[C@H]1[C@H](O)[C@@H](O)[C@H](n2c3c(Cl)cccc3c3c4c(c5c6cccc(Cl)c6[nH]c5c32)CNC4=O)O[C@@H]1CO | 3.2 | – | – | – | 5.6 µM | 3 µM | 1.8 µM | 0.36 µM | > 125 µM | 1.15 µM | – | 28.8 µM |
| CO[C@H]1[C@H](O)[C@@H](O)[C@H](n2c3c(Cl)cccc3c3c4c(c5c6cccc(Cl)c6[nH]c5c32)C(=O)N(C)C4)O[C@@H]1CO.CO[C@H]1[C@H](O)[C@@H](O)[C@H](n2c3c(Cl)cccc3c3c4c(c5c6cccc(Cl)c6[nH]c5c32)CN(C)C4=O)O[C@@H]1CO | 5.5 | 9 mm | – | 0.48 µM | > 88 µM | 4.03 µM | 17.6 µM | 0.31 µM | 0.52 µM | 1.72 µM | – | – |
